# Assay results taken from PMC3357308 (Diabetes, 2012).
# What was measured:
# human 11βHSD1 [1] = target: T1, human 11βHSD1 (Homo sapiens, UniProt P28845); assay type: cell-based; conditions: HEK293/h11βHSD1 cells, substrate 2 μmol/L, 1–24 h, n = 6
# [2] = In vivo pharmacokinetics of d2-cortisone after intravenous bolus; design: species or system human; conditions: iv bolus 141 μg
# human 11βHSD1 [3] = target: T1, human 11βHSD1; assay: Competition with [3H]2-cortisone in HEK293/h11βHSD1 cells; assay type: cell-based; conditions: [3H]2-cortisone 5 nmol/L, competitor 0–4,955 nmol/L, 6–24 h
# 11βHSD1 = conditions: in vivo, d4-cortisol tracer; cited from earlier work
# [4] = system: 11β-reductase and 11β-dehydrogenase activities; assay: Cortisol/cortisone interconversion in subcutaneous adipose and skeletal muscle; assay type: in vivo, human; conditions: arteriovenous difference adjusted for blood flow, n = 6; for Ra (net Ra for cortisone), skeletal muscle release: forearm
# 11β-dehydrogenase [5] = conditions: extrapolated from generation of d3-cortisone, non–steady-state, adjusted for substrate concentration and volume of distribution; cited from earlier work
# 11β-dehydrogenase [6] = assay: Primed 3-h d2-cortisone infusion before and after licorice; conditions: without licorice, whole body, steady state, n = 3
# [7] = system: 11β-reductase and 11β-dehydrogenase activities; assay: Cortisol/cortisone interconversion in the splanchnic circulation; assay type: in vivo, human; conditions: adjusted for hepatic blood flow, n = 4
# T1 sequence (P28845 whole entry): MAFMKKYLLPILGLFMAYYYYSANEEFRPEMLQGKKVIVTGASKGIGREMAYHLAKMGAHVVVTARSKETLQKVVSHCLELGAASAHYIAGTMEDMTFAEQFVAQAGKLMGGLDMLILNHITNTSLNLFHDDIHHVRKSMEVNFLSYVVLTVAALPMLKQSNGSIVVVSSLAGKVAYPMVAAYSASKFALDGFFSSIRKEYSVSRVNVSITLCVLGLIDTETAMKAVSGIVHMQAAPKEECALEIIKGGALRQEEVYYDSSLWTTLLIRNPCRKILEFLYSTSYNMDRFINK
production of d2-cortisol or cortisol from the substrate (human 11βHSD1 [1]),time tracer could be detected after injection ([2]; blood),area under the curve ([2]; n = 3),Vmax for formation of [3H]2-cortisol in the presence of the steroid (human 11βHSD1 [3]),"Ra (net Ra for cortisone), skeletal muscle release [4]",Net Ra of cortisone (11β-dehydrogenase [6]),"Ra (net Ra for cortisone), splanchnic release [7]","Ra (net Ra for cortisone), subcutaneous adipose release [4]",Structure (SMILES),cortisol released by subcutaneous adipose 11βHSD1 (11βHSD1),cortisone production rate (11β-dehydrogenase [5])
0.17 ± 0.05 pmol/10^5 cells/min,1.5 h,494 nmol/L per min,0.83 ± 0.34 pmol/10^5 cells/min,,,,,"[2H]C1C(=O)C=C2CC[C@H]3[C@@H]4CC[C@](O)(C(=O)CO)[C@@]4(C)CC(=O)[C@@H]3[C@@]2(C)C1[2H] (some centres unmarked) [d2-cortisone, 1,2-[^2H]2-Cortisone]",,
,,,,19.7 ± 4.1 pmol/100 mL/min,,,,C[C@]12CCC(=O)C=C1CC[C@@H]1[C@@H]2[C@@H](O)C[C@@]2(C)[C@H]1CC[C@]2(O)C(=O)CO [cortisol],~15 pmol/100 g tissue/min,
0.41 ± 0.15 pmol/10^5 cells/min,,,0.73 ± 0.26 pmol/10^5 cells/min,15.2 ± 5.8 pmol/100 mL/min,36 nmol/min,19.5 ± 2.8 nmol/min,38.7 ± 5.8 pmol/100 g/min,C[C@]12CCC(=O)C=C1CC[C@@H]1[C@@H]2C(=O)C[C@@]2(C)[C@H]1CC[C@]2(O)C(=O)CO [cortisone],,24 nmol/min
,,,,5.9 ± 1.8 pmol/100 mL/min,,,,[2H]C1([2H])[C@H](O)[C@@]2([2H])[C@@H](CCC3=CC(=O)CC[C@@]32C)[C@@H]2CC[C@](O)(C(=O)CO)[C@]21C [d3-cortisol],,
